Experimental data taken from a melting point compilation (Tetko et al.; mined from patent text by program, amines drawn as free bases though some values may be those of a salt).

Compound | melting point
Cc1cc(C(=O)O)ccc1C1=CCCCC1 | 173 to 175 °C
CCOc1cc(C(=O)N2CCN(C(=O)C3=Cc4cc(OC)c(OC)cc4CCC3)CC2)cc(OCC)c1OCC | 125 to 126 °C
CCOCc1nc2c(N)nc3ccccc3c2n1CC1(C(N)=O)CC1 | 230 to 232 °C
Cc1ccc(-c2[nH]nc(CO)c2-c2ccc(S(N)(=O)=O)cc2)cc1 | 130 °C
CC(C)CCOc1c(-c2ccc(S(N)(=O)=O)cc2)cnn(-c2ccc(F)c(F)c2)c1=O | 149 to 151 °C
CCOC(=O)CCC1Cn2c(-c3ccc(OC)cc3)c(C)c3cccc(c32)O1 (stereo not given) | 154 °C
COc1cc2c(=O)n(CCCc3ccccc3)c3cc(OC)c(OC)cc3c2cc1OC | 209 to 211 °C
COc1cc(OC)nc(CN2C(=O)C3(COc4cc5c(cc43)OCCO5)c3ccccc32)n1 (stereo not given) | 169 to 170 °C
O=C(NC1CCCCC1)c1c(O)c2cc(F)ccc2n(Cc2ccc(F)cc2)c1=O | 118 °C
CN1C(=O)Cc2cscc2S1(=O)=O | 148 to 149 °C
CCc1sc2nc(C(=O)O)cn2c1C | 243 to 245 °C
C=CS(=O)(=O)CCC(F)(F)C(F)(F)C(F)(F)C(F)(F)C(F)(F)C(F)(F)C(F)(F)C(F)(F)F | 96 to 97 °C
Nc1cc2nc(O)c(O)nc2c2ccccc12 | > 300 °C
CCC1(CCCCN2CCc3sccc3C2)C(=O)Nc2ccc(C)cc21 (stereo not given) | 138 to 140 °C
CC(C)(C)c1nc(C=NO)nc(C(C)(C)C)c1O | 205 to 220 °C
COc1cc(C=C2C(=O)CCc3ccccc32)c([N+](=O)[O-])cc1OC | 58 to 60 °C
COc1ccc(-c2cc(C(F)(F)F)n3ncc(C(=O)Nc4cccc(S(=O)(=O)N5CCOCC5)c4)c3n2)cc1 | 203 °C

Compound | melting point
Nc1nc2c(c(=O)[nH]1)CCCC2 | > 300 °C
CC(C)(C)c1cc(-c2nn(CCCC(=O)O)c3ncccc23)cc(C(C)(C)C)c1O | 192 to 194 °C
CSc1c(C)c(-c2ccc(Cl)cc2Cl)nn1C | 65 to 66 °C
COC(=O)Nc1nc2ccc(SC[Si](C)(C)C)cc2[nH]1 | 189 to 191 °C
CCc1nc2c(cnn2CC)c(NC2CCOCC2)c1CNC(=O)c1cccc(C(=O)NCc2ccc(Cl)c(-c3cccc(CN4CCNC(C)C4)c3)c2)c1 (stereo not given) | 117 to 120 °C
CC(C)(C)OC(=O)N1CCN(c2ccc3[nH]c(S)nc3c2)CC1 | 219 to 220 °C
COc1cccc(Nc2c([N+](=O)[O-])cc(C(=O)O)cc2S(N)(=O)=O)c1 | 253 to 254 °C
O=C(OC1CCCCC1)c1ncn2c1[C@@H]1CCCN1C(=O)c1c(I)cccc1-2 | 181 to 182 °C
CC(=O)NCC1CN(c2cc(F)c(N3CCN(C(=O)COC(=O)c4ccc(N(C)C)cc4)CC3)c(F)c2)C(=O)O1 (stereo not given) | 199 to 202 °C
CC(=O)OC1CCC2C3CCC4=CC(=O)CCC4(C)C3(Br)C(F)CC12C (stereo not given) | 172 to 174 °C
COC(=O)c1nc(-c2ccc(Cl)c(OC)c2F)cc(N)c1OC | 114 to 118 °C
COc1cc2c(cc1OC)C(COCCN1CCCCC1)OCCC2 (stereo not given) | 124 °C
CN1C(=O)C(NC(=O)CC23CC4CC(CC(C)(C4)C2)C3)N=C(c2ccccc2)c2ccccc21 (racemic) | 195 to 196 °C
CCCCNc1c(C(=O)OCC)cnc2[nH]ncc12 | 181 °C
CC1(C)CCC(C(=O)N2CCC[C@H]2C(=O)O)C1S (stereo not given in full) | 153 °C
COc1c(C)c(C)c2c(c1C)C(CO)C(C)(C)O2 (stereo not given) | 79 to 81 °C

Now from value to molecule:

melting point | Compound
145 to 149 °C | CC(C(=O)O)c1ccc2noc(-c3ccccc3)c2c1 (stereo not given)
225 to 228 °C | Cc1ccc2c(c1)N(CC(=O)c1ccccc1C)C(=O)C(NC(=O)Nc1ccc(F)c(C(=O)O)c1)CN2C(=O)C(C)(C)C (stereo not given)
106 °C | OC(=S)Cc1cccc2ccccc12
255 to 256 °C | O=C1CC(c2sccc2Cl)=Nc2ccc(-c3ccc(F)cc3)cc2N1
79 to 80 °C | CCOC(=O)NCn1cccc1C(=O)c1ccc(Cl)cc1Cl
207 °C | O=c1nc(-c2ccc(C(F)(F)F)cn2)sc2ccccc12
124 to 126 °C | Cc1c(C)n(CC=Cc2ccccc2)c2c(OCc3ccc(F)cc3)nncc12
244 to 246 °C | COc1ccc2c(c1)S(=O)(=O)c1ccccc1C(=O)N2
255 to 257 °C | Cc1cccc2c(=O)n3c(nc12)C(=O)c1cc(F)ccc1-3
244 to 246 °C | O=C1CCC(N2Cc3cc(CNC(=O)c4cccc(C(F)(F)F)c4)ccc3C2=O)C(=O)N1 (stereo not given)
141 to 143 °C | N#CC1C=Cc2cc(Cl)ccc2N1C(=O)c1ccccc1 (stereo not given)
175 to 177 °C | Cc1cc(O)c(O)cc1S(=O)(=O)c1ccc(F)cc1
154 to 155 °C | CCCN(CCC)[C@H]1Cc2c[nH]c3ccc(-c4nc(-c5ccccc5)no4)c(c23)C1
154 to 155 °C | Clc1ccc(N2CCN(Cc3cn4cc(Br)ccc4n3)CC2)cc1
154 to 157 °C | COc1ccc(CC2CNC(=O)N2)cc1OCc1ccccc1 (stereo not given)
142 to 143 °C | Clc1ccc(C2CCN(Cc3cncc(-c4ccccc4)c3)CC2)cc1
112 to 116 °C | Cc1ccc(NC(=O)/C=C/c2ccccc2C(F)(F)F)cc1NC(=N)c1ccccc1
232 to 233 °C | O=C1NC(=O)C(c2c3n(c4ccccc24)CCC(CO)C3)=C1c1ccccc1Cl (stereo not given)
90 to 92 °C | O=CN1C(=O)[C@H]2N=C(Cc3ccccc3)O[C@H]21

melting point | Compound
216 °C | Cn1cc(-c2cccc(Br)c2)c(=O)c(-c2cccc(Br)c2)c1
198 to 201 °C | COc1ccccc1NS(=O)(=O)c1ccc(NC2=C(Cl)C(=O)c3ccccc3C2=O)cc1
171 to 173 °C | O=C(Nc1ccc(C(F)(F)F)cc1)[C@H]1[C@H](c2ccccc2)C12CCCC2 (relative stereo)
278 to 279 °C | O=c1nc(Nc2ccc(Cl)cc2)sc2ncccc12
95 to 98 °C | CCOC(=O)Cc1cccc(Cn2ccc(OCc3ccc(F)cc3F)c(Br)c2=O)c1
85 to 86 °C | COC(=O)Cc1cn(C)nc1OCc1ccc(OCc2csc(-c3ccccc3)n2)nc1
268 °C | O=C(CCc1ccccc1)Nc1ccc2c(c1)C(=O)c1cc(NC(=O)CCc3ccccc3)ccc1C2=O
196 to 198 °C | CNC(=O)c1cc(-c2ccc(-c3ccco3)cc2)n(-c2ccc(S(C)(=O)=O)c(F)c2)n1
92 to 93 °C | CC(C)=CCN1c2ccccc2NC(=O)C1C (racemic)
154 to 156 °C | CCOC(=O)C(=O)CC(=O)c1cn(Cc2ccccc2OC)c2ccccc2c1=O
156 to 158 °C | CC(c1ccccc1Cl)n1cnc2cnc3ccccc3c21 (stereo not given)
146 to 150 °C | CCC(=O)N(C)c1cccc(-c2ccc3nncn3n2)c1
121 to 122 °C | CCOC(=O)c1nn(-c2ccc(Cl)cc2Cl)c(-c2cccs2)c1C
109 to 110 °C | Oc1cccnc1Oc1cccc(Cl)c1
89 to 90.5 °C | CCOC(=O)c1cc2c(OCc3ccccc3)cccc2n1C
260 to 263 °C | COc1cc2ccccc2cc1C(=O)NNC(=O)c1cc2ccccc2cc1OC
148 to 149 °C | CCC(=O)NC1Cc2ccccc2C(Cc2ccccc2)C1 (stereo not given)
88 to 90 °C | O=c1c(-c2cccc(C(F)(F)F)c2)c(Cl)cnn1-c1ccc(F)cc1
